Data set [1] has as its target T1, hPPARgamma (Homo sapiens, UniProt P37231).
T1 construct: Gal4-hPPARγ(LBD); Gal4 (fusion partner); expressed in transfected cells; host or cells: COS-7 (monkey kidney)
T1 sequence (P37231 238-503 limits assumed): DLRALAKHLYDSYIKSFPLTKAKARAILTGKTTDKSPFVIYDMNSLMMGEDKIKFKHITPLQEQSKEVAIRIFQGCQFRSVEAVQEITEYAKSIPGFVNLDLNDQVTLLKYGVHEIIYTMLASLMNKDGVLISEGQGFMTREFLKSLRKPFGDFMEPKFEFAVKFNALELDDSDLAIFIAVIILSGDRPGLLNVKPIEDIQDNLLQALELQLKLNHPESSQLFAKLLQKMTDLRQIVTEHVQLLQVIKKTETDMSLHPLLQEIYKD
Briefly: Gal4-hPPARgamma transactivation assay in COS-7 cells (luciferase). As to conditions: for EC50: Gal4-hPPARγ(LBD) transactivation. In kind it is cell-based. A digest of the protocol:
(§1)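 COS-7 cells transiently co-transfected with Gal4-hPPAR chimeras and a Gal4(RE)_TkpGL3 luciferase reporter (1/50 ratio) were seeded at 20,000 cells/well for 4 h, then treated in 2% lipid-free synthetic serum medium (0.1% DMSO). EC50 and Hill slope came from fitted luciferase curves. Emax is relative to fenofibrate 100 μM (α), rosiglitazone 10 μM (γ) or GW501516 1 μM (δ).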

Data set [2] concerns the target T2, hPPARdelta (Homo sapiens, UniProt Q03181).
T2 construct: Gal4-hPPARδ(LBD); Gal4 (fusion partner); expressed in transfected cells; host or cells: COS-7 (monkey kidney)
T2 sequence (Q03181 211-439 limits assumed): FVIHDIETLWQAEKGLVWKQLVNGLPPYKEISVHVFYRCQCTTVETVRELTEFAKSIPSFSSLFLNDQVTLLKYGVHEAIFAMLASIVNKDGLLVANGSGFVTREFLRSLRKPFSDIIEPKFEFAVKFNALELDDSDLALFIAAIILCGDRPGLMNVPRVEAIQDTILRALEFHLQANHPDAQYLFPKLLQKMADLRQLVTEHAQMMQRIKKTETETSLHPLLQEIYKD
The data set can be described thus: Gal4-hPPARdelta transactivation assay in COS-7 cells (luciferase). In kind it is cell-based. As to conditions: for EC50: Gal4-hPPARδ(LBD) transactivation. A digest of the protocol:
as §1

Data set [3] concerns the target T3, hPPARalpha (Homo sapiens, UniProt Q07869).
T3 construct: Gal4-hPPARα(LBD); Gal4 (fusion partner); expressed in transfected cells; host or cells: COS-7 (monkey kidney)
T3 sequence (Q07869 239-466 limits assumed): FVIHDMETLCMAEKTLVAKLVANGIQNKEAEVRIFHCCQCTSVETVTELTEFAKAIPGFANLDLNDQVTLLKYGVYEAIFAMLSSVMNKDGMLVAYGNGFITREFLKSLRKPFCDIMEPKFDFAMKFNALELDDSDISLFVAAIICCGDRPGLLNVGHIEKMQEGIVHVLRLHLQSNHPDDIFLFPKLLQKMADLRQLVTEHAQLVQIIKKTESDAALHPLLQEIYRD
The data set can be described thus: Gal4-hPPARalpha transactivation assay in COS-7 cells (luciferase). It is filed as cell-based. The settings on record: for EC50: Gal4-hPPARα(LBD) transactivation. A digest of the protocol: as §1

Our source for the Emax, EC50 and melting point values is patent US9115073B2, “1,3-diphenylpropane derivatives, preparations and uses thereof” (GENFIT, priority 2011, dated 2015).

Regarding `COC(c1ccc(Br)cc1)C1CC1c1cc(C)c(OC(C)(C)C(=O)O)c(C)c1` (racemic) [Cpd 1-1, 2-(4-(2-(methoxy(4-bromophenyl)methyl)cyclopropyl)-2,6-dimethylphenoxy)-2-methylpropanoic acid], the melting point came to 133 °C. The Emax in data set [1] (COS-7, maximal relative activation vs reference, read-out: Gal4-hPPARγ(LBD) TOP (% ref)) stood at 68%. Also, the EC50 in data set [1] is 0.044 µM. For the same molecule, the Emax in data set [2] (COS-7, maximal relative activation vs reference, read-out: Gal4-hPPARδ(LBD) TOP (% ref)) is 84%. The molecule also came in with an EC50 in data set [2] of 0.04 µM. For the same molecule, in data set [3] (COS-7, maximal relative activation vs reference, read-out: Gal4-hPPARα(LBD) TOP (% ref)), the Emax amounted to 44%. The molecule further returned an EC50 in data set [3] of 0.239 µM.

As to `COC(c1ccc(OC(F)(F)F)cc1)C1CC1c1cc(C)c(OC(C)(C)C(=O)O)c(C)c1` (single isomer, unassigned) [Cpd 14-2, 2-(4-(2-(methoxy(4-(trifluoromethoxy)phenyl)methyl)cyclopropyl)-2,6-dimethylphenoxy)-2-methylpropanoic acid], the melting point was in the range of 190 to 194 °C. The response in data set [1] was half-maximal at 0.017 µM (EC50). In data set [2], this molecule came in with an EC50 of 0.03 µM. A half-maximal response in data set [3] (EC50) required 0.041 µM.

The term EC50 denotes the concentration needed to bring the measured effect to its halfway point. For orientation: melting point means the temperature, or range, at which the solid turns liquid.
